# Measurements published in ChEMBL document CHEMBL4680314, “Discovery of potent glycogen synthase kinase 3/cholinesterase inhibitors with neuroprotection as potential therapeutic agent for Alzheimer's disease” (Bioorg Med Chem, 2021).
# Activity calls are given as the source filed them. The calls are words filed in the database; no cut-off is given here.
# How the values were obtained:
# Cholinesterase = Cholinesterase (Homo sapiens, UniProt P06276); assay: Inhibition of human BChE using butyrylthiocholineiodide as substrate incubated for 10 mins by Ellman's method
# [1] = target: Cyclin-dependent kinase 2 (Homo sapiens, UniProt P24941); assay: Inhibition of CDK2 (unknown origin) by ATP competitive based analysis
# [2] = Ratio of drug level in ICR mouse brain to blood at 15 mg/kg, po measured after 90 mins by LC-MS/MS analysis; assay type: ADME, organism-based; details: 1.5 h
# Homo sapiens [3] = species on record: Homo sapiens; assay: Selectivity index, ratio of IC50 for GSK3alpha (unknown origin) to IC50 for GSK-3 beta (unknown origin) by ATP competitive based analysis
# Homo sapiens [4] = species on record: Homo sapiens; assay: Selectivity index, ratio of IC50 for JNK2 (unknown origin) to IC50 for GSK-3 beta (unknown origin) by ATP competitive based analysis
# Homo sapiens [5] = species on record: Homo sapiens; assay: Selectivity index, ratio of IC50 for CDK6 (unknown origin) to IC50 for GSK-3 beta (unknown origin) by ATP competitive based analysis
# [6] = Oral bioavailability in Sprague-Dawley rat at 10 mg/kg measured upto 24 hrs by LC-MS/MS analysis; assay type: ADME, organism-based; details: in vivo
# in vitro = details: PAMPA
# Description: Effective permeability of compound in PBS/EtOH buffer (7:3) at 25 ug/ml incubated for 18 hrs by PAMPA-BBB assay
# [7] = target: Glycogen synthase kinase-3 beta (Mus musculus, UniProt Q9WV60); assay: Inhibition of GSK3beta in mouse N2a cells overexpressing human tau assessed as reduction in tau phosphorylation at Ser396 residue incubated for 6 hrs by Western blot analysis; assay type: cell-based
# [8] = Tmax in Sprague-Dawley rat at 10 mg/kg, po measured upto 24 hrs by LC-MS/MS analysis; assay type: ADME, organism-based; details: in vivo
# Homo sapiens [9] = species on record: Homo sapiens; assay: Selectivity index, ratio of IC50 for JNK3 (unknown origin) to IC50 for GSK-3 beta (unknown origin) by ATP competitive based analysis
# [10] = Toxicity in ICR mouse assessed as reduction in body weight at 15 mg/kg, po; assay type: organism-based; details: in vivo
# [11] = MRT (0 to t) in Sprague-Dawley rat at 10 mg/kg, po measured upto 24 hrs by LC-MS/MS analysis; assay type: ADME, organism-based; details: in vivo
# [12] = Toxicity in ICR mouse model of scopolamine-induced cognitive dysfunction assessed as effect on locomotor activity by measuring effect on swimming speed at 15 mg/kg, po by Morris water maze test; assay type: organism-based; details: in vivo
# [13] = target: Mitogen-activated protein kinase 11 (Homo sapiens, UniProt Q15759); assay: Inhibition of p38MAPK beta (unknown origin) by ATP competitive based analysis
# [14] = target: Glycogen synthase kinase-3 beta (Mus musculus) (UniProt Q9WV60); assay: Inhibition of GSK3beta in mouse N2a cells overexpressing human tau assessed as tau phosphorylation at Ser396 residue at 0.67 uM incubated for 6 hrs by Western blot analysis (reference value: […] %); assay type: cell-based; design: scale not given: the % may be the effect or the level left
# [15] = target: Mitogen-activated protein kinase 14 (Homo sapiens, UniProt Q16539); assay: Inhibition of p38MAPK alpha (unknown origin) by ATP competitive based analysis
# Homo sapiens [16] = species on record: Homo sapiens; assay: Selectivity index, ratio of IC50 for CDK7 (unknown origin) to IC50 for GSK-3 beta (unknown origin) by ATP competitive based analysis
# [17] = Volume of distribution in Sprague-Dawley rat at 5 mg/kg, iv measured upto 24 hrs by LC-MS/MS analysis; assay type: ADME, organism-based; details: in vivo
# [18] = target: Mitogen-activated protein kinase 12 (Homo sapiens, UniProt P53778); assay: Inhibition of p38MAPK gamma (unknown origin) by ATP competitive based analysis
# [19] = Cmax in Sprague-Dawley rat at 5 mg/kg, iv measured upto 24 hrs by LC-MS/MS analysis; assay type: ADME, organism-based; design: route intravenous, dose 5 mg/kg, time <=24; details: in vivo
# Homo sapiens [20] = species on record: Homo sapiens; assay: Selectivity index, ratio of IC50 for ERK1 (unknown origin) to IC50 for GSK-3 beta (unknown origin) by ATP competitive based analysis
# BV-2 [21] = assay: Anti-inflammatory activity in mouse BV-2 cells assessed as reduction in LPS-induced IL-1beta production incubated for 1 hr followed by LPS stimulation and measured after 24 hrs by ELISA; assay type: functional, cell-based; details: dose 2-8 µM, time 25.0 hrs
# [22] = AUC (0 to 24 hrs) in Sprague-Dawley rat at 5 mg/kg, iv measured upto 24 hrs by LC-MS/MS analysis; assay type: ADME, organism-based; design: route intravenous, dose 5 mg/kg, time <=24; details: in vivo
# [23] = AUC (0 to infinity) in Sprague-Dawley rat at 5 mg/kg, iv by LC-MS/MS analysis; assay type: ADME, organism-based; design: route intravenous, dose 5 mg/kg; details: in vivo
# [24] = target: Glycogen synthase kinase-3 alpha (Homo sapiens, UniProt P49840); assay: Inhibition of GSK3alpha (unknown origin) by ATP competitive based analysis
# [25] = target: Cyclin-dependent kinase 4 (Homo sapiens, UniProt P11802); assay: Inhibition of CDK4 (unknown origin) by ATP competitive based analysis
# Acetylcholinesterase = Acetylcholinesterase (Homo sapiens, UniProt P22303); assay: Inhibition of human recombinant AChE expressed in HEK293 cells using acetylthiocholine iodide as substrate incubated for 10 mins by Ellman's method; assay type: cell-based
# [26] = Half life in Sprague-Dawley rat at 10 mg/kg, po measured upto 24 hrs by LC-MS/MS analysis; assay type: ADME, organism-based; details: in vivo
# [27] = target: Glycogen synthase kinase-3 beta (Mus musculus) (UniProt Q9WV60); assay: Inhibition of GSK3beta in mouse N2a cells overexpressing human tau assessed as tau phosphorylation at Ser396 residue at 2 uM incubated for 6 hrs by Western blot analysis (reference value: […] %); assay type: cell-based; design: scale not given: the % may be the effect or the level left
# Homo sapiens [28] = species on record: Homo sapiens; assay: Selectivity index, ratio of IC50 for p38MAPK beta (unknown origin) to IC50 for GSK-3 beta (unknown origin) by ATP competitive based analysis
# BV-2 [29] = assay: Anti-inflammatory activity in mouse BV-2 cells assessed as reduction in LPS-induced TNFalpha expression at 4 uM incubated for 1 hr followed by LPS stimulation and measured after 24 hrs by immunofluorescence based laser confocal microscopy; assay type: functional, cell-based; details: time 25.0 hrs
# Homo sapiens [30] = species on record: Homo sapiens; assay: Selectivity index, ratio of IC50 for CDK2 (unknown origin) to IC50 for GSK-3 beta (unknown origin) by ATP competitive based analysis
# [31] = Half life in Sprague-Dawley rat at 5 mg/kg, iv measured upto 24 hrs by LC-MS/MS analysis; assay type: ADME, organism-based; details: in vivo
# BV-2 [32] = assay: Anti-inflammatory activity in mouse BV-2 cells assessed as reduction in LPS-induced ROS production at 3 uM incubated for 1 hr followed by LPS stimulation and measured after 24 hrs by DCFH-DA staining based inverted fluorescence microscopy; assay type: functional, cell-based; details: time 25.0 hrs
# Homo sapiens [33] = species on record: Homo sapiens; assay: Selectivity index, ratio of IC50 for […] IC50 for GSK-3 beta (unknown origin) by ATP competitive based analysis
# Homo sapiens [34] = species on record: Homo sapiens; assay: Selectivity index, ratio of IC50 for p38MAPK gamma (unknown origin) to IC50 for GSK-3 beta (unknown origin) by ATP competitive based analysis
# Homo sapiens [35] = species on record: Homo sapiens; assay: Selectivity index, ratio of IC50 for CDK9 (unknown origin) to IC50 for GSK-3 beta (unknown origin) by ATP competitive based analysis
# [36] = AUC (0 to 24 hrs) in Sprague-Dawley rat at 10 mg/kg, po measured upto 24 hrs by LC-MS/MS analysis; assay type: ADME, organism-based; design: route oral, dose 10 mg/kg, time <=24; details: in vivo
# [37] = target: Glycogen synthase kinase-3 beta (Homo sapiens, UniProt P49841); assay: Inhibition of GSK3beta (unknown origin) by ATP competitive based analysis
# Sequence of Glycogen synthase kinase-3 beta (Homo sapiens, UniProt P49841) (P49841 whole entry): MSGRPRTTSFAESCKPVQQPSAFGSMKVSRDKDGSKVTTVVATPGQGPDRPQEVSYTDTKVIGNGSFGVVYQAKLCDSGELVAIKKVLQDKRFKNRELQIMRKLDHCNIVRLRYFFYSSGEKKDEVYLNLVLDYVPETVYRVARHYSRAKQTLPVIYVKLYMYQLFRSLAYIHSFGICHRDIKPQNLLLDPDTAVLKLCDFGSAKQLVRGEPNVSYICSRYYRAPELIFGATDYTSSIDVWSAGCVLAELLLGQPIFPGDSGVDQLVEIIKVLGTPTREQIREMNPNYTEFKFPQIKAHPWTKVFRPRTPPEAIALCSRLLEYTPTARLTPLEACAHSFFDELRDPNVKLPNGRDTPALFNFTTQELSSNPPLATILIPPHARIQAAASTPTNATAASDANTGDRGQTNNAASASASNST
# Sequence of Glycogen synthase kinase-3 beta (Mus musculus) (Q9WV60 whole entry, looked up): as the sequence (P49841 whole entry) above, with T390P, T392A, A400T, T402A counted along it
# Sequence of Cholinesterase (P06276 whole entry): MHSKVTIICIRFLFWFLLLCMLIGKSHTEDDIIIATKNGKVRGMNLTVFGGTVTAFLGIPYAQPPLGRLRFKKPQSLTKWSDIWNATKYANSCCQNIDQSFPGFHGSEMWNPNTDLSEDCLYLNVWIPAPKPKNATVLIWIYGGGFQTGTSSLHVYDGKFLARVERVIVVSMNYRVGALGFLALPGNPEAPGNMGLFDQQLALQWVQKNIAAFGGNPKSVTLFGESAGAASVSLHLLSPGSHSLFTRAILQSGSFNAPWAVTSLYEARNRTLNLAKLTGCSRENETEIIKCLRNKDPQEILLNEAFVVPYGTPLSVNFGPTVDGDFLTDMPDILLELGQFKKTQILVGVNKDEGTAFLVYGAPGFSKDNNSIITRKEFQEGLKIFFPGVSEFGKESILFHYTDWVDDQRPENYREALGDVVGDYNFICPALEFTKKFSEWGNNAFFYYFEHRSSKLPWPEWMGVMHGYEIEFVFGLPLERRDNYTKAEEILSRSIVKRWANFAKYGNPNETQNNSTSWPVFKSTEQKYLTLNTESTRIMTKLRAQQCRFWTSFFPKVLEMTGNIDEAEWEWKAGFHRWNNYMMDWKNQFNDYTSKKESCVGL
# Sequence of Mitogen-activated protein kinase 12 (P53778 whole entry): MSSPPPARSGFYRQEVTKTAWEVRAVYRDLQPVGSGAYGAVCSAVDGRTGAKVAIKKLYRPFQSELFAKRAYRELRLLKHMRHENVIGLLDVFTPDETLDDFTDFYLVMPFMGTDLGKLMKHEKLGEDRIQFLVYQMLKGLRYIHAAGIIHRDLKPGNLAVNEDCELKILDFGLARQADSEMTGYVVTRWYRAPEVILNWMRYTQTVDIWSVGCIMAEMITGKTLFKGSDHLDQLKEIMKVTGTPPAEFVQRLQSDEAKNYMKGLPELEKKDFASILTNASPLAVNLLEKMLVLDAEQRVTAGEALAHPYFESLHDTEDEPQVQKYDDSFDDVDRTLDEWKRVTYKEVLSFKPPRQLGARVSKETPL
# Sequence of Glycogen synthase kinase-3 alpha (P49840 whole entry): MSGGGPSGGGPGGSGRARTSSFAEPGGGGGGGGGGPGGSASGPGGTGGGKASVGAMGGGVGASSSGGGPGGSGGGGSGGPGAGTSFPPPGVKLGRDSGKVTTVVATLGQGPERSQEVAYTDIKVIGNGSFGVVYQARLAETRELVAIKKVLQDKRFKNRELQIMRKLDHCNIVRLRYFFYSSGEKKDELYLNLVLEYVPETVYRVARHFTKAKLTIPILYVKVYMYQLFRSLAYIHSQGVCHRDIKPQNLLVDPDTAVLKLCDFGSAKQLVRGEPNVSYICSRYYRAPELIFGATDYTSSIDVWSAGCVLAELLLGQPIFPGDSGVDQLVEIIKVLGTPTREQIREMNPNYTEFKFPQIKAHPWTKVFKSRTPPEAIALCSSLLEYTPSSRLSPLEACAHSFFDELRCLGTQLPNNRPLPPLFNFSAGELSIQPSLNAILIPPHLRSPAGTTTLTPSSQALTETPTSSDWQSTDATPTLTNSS
# Sequence of Acetylcholinesterase (P22303 whole entry): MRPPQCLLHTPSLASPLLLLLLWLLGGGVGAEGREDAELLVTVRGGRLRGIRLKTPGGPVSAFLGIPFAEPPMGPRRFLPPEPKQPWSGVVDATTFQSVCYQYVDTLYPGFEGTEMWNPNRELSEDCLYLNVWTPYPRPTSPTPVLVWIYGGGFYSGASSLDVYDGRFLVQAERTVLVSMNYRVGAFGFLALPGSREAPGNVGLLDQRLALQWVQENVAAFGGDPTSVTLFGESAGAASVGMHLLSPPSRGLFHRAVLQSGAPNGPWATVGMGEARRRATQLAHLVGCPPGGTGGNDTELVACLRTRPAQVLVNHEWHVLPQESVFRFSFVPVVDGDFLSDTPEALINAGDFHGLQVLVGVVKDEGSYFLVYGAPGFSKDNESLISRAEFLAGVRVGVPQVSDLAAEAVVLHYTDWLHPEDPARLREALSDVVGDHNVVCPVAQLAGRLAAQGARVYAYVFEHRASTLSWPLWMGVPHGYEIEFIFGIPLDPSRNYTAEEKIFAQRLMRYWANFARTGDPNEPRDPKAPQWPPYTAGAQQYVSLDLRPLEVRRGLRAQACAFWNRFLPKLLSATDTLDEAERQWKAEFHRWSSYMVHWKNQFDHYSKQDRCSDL
# Sequence of Glycogen synthase kinase-3 beta (Mus musculus, UniProt Q9WV60) (Q9WV60 whole entry): as the sequence (P49841 whole entry) above, with T390P, T392A, A400T, T402A counted along it
# Sequence of Mitogen-activated protein kinase 11 (Q15759 whole entry): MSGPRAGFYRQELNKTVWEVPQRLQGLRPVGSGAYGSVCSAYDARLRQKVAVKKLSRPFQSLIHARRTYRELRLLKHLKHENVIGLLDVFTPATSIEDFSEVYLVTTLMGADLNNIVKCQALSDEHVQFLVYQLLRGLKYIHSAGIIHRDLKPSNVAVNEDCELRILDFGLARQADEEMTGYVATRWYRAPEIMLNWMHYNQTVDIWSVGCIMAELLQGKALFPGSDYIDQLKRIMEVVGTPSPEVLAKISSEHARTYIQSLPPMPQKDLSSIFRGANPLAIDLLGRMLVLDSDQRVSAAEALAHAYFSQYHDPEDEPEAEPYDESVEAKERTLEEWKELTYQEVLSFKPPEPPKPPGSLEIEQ
# Sequence of Mitogen-activated protein kinase 14 (Q16539 whole entry): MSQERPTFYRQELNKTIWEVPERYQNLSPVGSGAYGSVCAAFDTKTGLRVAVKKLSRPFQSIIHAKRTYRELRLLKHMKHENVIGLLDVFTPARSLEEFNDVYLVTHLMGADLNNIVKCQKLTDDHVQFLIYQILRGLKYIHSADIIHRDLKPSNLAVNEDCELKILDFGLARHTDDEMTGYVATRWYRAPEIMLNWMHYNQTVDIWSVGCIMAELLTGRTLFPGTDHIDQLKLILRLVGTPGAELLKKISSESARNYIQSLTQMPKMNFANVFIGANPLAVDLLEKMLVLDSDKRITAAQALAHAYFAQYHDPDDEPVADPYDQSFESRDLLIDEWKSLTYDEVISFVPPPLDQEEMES
# Sequence of Cyclin-dependent kinase 4 (P11802 whole entry): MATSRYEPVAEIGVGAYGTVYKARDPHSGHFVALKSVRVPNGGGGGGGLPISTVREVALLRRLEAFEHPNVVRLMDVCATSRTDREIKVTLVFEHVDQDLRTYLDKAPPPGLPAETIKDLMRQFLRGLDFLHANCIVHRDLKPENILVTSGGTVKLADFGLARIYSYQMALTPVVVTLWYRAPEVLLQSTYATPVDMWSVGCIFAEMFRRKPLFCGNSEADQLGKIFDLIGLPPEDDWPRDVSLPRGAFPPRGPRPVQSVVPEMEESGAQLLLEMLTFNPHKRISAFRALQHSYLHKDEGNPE
compound,measurement,setting,value
NC(=O)c1sc(-c2ccnc(NC(=O)C3CC3)c2)nc1OCCCC1CCN(Cc2ccc(F)cc2)CC1,IC50,Cholinesterase,3.41 µM
same,IC50,[1],> 300 nM
same,Ratio,[2],21.6 ng/kg
same,Ratio IC50,Homo sapiens [3],200
same,Ratio IC50,Homo sapiens [4],200
same,Ratio IC50,Homo sapiens [5],200
same,bioavailability,[6],30.3%
same,"Papp at 18 h, 25 ug/ml",in vitro,8.4 ×10⁻⁶ cm/s
same,DC50,[7],380 nM
same,Tmax,[8],4.7 h
same,Ratio IC50,Homo sapiens [9],200
same,Activity,[10],Non-Toxic
same,MRT last at 24 h,[11],9.9 h
same,Activity,[12],Non-Toxic
same,IC50,[13],> 300 nM
same,Activity,[14],32.9%
same,IC50,[15],> 300 nM
same,Ratio IC50,Homo sapiens [16],200
same,Vd,[17],15.8 L/kg
same,IC50,[18],> 300 nM
same,Cmax,[19],1000 ng/mL
same,Ratio IC50,Homo sapiens [20],200
same,Activity,BV-2 [21],Dose-dependent effect
same,AUC(0-t),[22],1960 ng·h/mL
same,AUC(0-inf),[23],1980 ng·h/mL
same,IC50,[24],12 nM
same,IC50,[25],> 300 nM
same,IC50,Acetylcholinesterase,310 nM
same,half-life,[26],348 min
same,Activity,[27],14.3%
same,Ratio IC50,Homo sapiens [28],200
same,Activity,BV-2 [29],Active
same,Ratio IC50,Homo sapiens [30],200
same,half-life,[31],258 min
same,Activity,BV-2 [32],Active
same,Ratio IC50,Homo sapiens [33],200
same,Ratio IC50,Homo sapiens [34],200
same,Ratio IC50,Homo sapiens [35],200
same,AUC(0-t),[36],1160 ng·h/mL
same,IC50,[37],16.1 nM
